Experimental data reported in patent US20240368173A1, “TRICYCLIC GPR65 MODULATORS” (PATHIOS THERAPEUTICS LIMITED, priority 2021, published 2024).
pIC50: −log10 of the molar value. Where two headings read alike, the source gives them in different places.

Molecular target: human recombinant GPR65 (Homo sapiens, UniProt Q8IYL9)
Assay: Human GPR65 cAMP HTRF antagonist assay
Assay type: cell-based
Procedure, shortened: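 Antagonism measured as suppression of the cAMP rise when pH is dropped to 7.2 (control wells pH 7.9) in 1321N1 cells stably carrying human GPR65. Cells in KRH with 1 mM IBMX and 200 μM EDTA saw compound 30 min, then acid stimulation 30 min; HTRF cAMP detection, normalised, 4-parameter logistic IC50.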

[1] = 1321N1-hrGPR65 cells, cAMP HTRF, assay pH 7.2, read-out: hGPR65 IC50 (Activity of selected compounds according to the invention)

Sequence of human recombinant GPR65 (Q8IYL9 whole entry): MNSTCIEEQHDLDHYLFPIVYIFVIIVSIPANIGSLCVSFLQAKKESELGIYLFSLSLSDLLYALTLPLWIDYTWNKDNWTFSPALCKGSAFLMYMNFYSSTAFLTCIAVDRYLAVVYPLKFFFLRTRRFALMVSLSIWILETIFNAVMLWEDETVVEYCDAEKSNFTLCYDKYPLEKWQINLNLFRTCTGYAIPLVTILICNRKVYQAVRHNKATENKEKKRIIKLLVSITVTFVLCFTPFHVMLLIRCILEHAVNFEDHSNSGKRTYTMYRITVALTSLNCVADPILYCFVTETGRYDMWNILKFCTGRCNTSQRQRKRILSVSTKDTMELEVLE

Compound	pIC50	pIC50 [1]
O=C(Nc1cc(Cl)c(-c2ccc(OC3CC3)nc2)cc1F)N1[C@H]2CC[C@@H]1c1c[nH]c(=O)cc1C2 [Compound 222, (6S,9R)-N-(5-Chloro-4-(6-cyclopropoxypyridin-3-yl)-2-fluorophenyl)-3-oxo-3,5,6,7,8,9-hexahydro-2H-6,9-epiminocyclohepta[c]pyridine-10-carboxamide]	> 6.30	–
O=C(Nc1cc(Cl)c(-c2ccsn2)cc1F)N1[C@H]2CC[C@@H]1c1n[nH]c(=O)cc1C2 [Compound 191, (6S,9R)-N-(5-Chloro-2-fluoro-4-(isothiazol-3-yl)phenyl)-3-oxo-3,5,6,7,8,9-hexahydro-2H-6,9-epiminocyclohepta[c]pyridazine-10-carboxamide]	> 6.30	–
O=C(Nc1cc(Cl)c(-c2cnc3nsnc3c2)cc1F)N1[C@H]2CC[C@@H]1c1n[nH]c(=O)cc1C2 [Compound 277, (6S,9R)-N-(4-([1,2,5]Thiadiazolo[3,4-b]pyridin-6-yl)-5-chloro-2-fluorophenyl)-3-oxo-3,5,6,7,8,9-hexahydro-2H-6,9-epiminocyclohepta[c]pyridazine-10-carboxamide]	> 6.30	–
O=C(Nc1cc(Cl)c(-c2ccc(OCC(F)(F)F)nc2)cc1F)N1[C@H]2CC[C@@H]1c1c[nH]c(=O)cc1C2 [Compound 241, (6S,9R)-N-(5-Chloro-2-fluoro-4-(6-(2,2,2-trifluoroethoxy)pyridin-3-yl)phenyl)-3-oxo-3,5,6,7,8,9-hexahydro-2H-6,9-epiminocyclohepta[c]pyridine-10-carboxamide]	> 6.30	–
O=C(Nc1cc(Cl)c(-c2cnccn2)cc1F)N1[C@H]2CC[C@@H]1c1n[nH]c(=O)cc1C2 [Compound 271, (6S,9R)-N-(5-Chloro-2-fluoro-4-(pyrazin-2-yl)phenyl)-3-oxo-3,5,6,7,8,9-hexahydro-2H-6,9-epiminocyclohepta[c]pyridazine-10-carboxamide]	–	5.30 to 6.30
O=C(Nc1ccc(C2CCOCC2)cc1)N1[C@H]2CC[C@@H]1c1ccnc(F)c1C2 [Compound 57, (5R,8S)-1-Fluoro-N-(4-(tetrahydro-2H-pyran-4-yl)phenyl)-6,7,8,9-tetrahydro-5H-5,8-epiminocyclohepta[c]pyridine-10-carboxamide]	–	5.30 to 6.30
O=C(Nc1ccc(-c2ccsc2)cc1)N1[C@H]2CC[C@@H]1c1ccnc(F)c1C2 [Compound 55, (5R,8S)-1-Fluoro-N-(4-(thiophen-3-yl)phenyl)-6,7,8,9-tetrahydro-5H-5,8-epiminocyclohepta[c]pyridine-10-carboxamide]	> 6.30	–
O=C(Nc1ccc(OC(F)(F)F)c(Cl)c1)N1C2CCC1c1n[nH]c(=O)cc1C2 (racemic) [Compound 9, (±)-N-(3-Chloro-4-(trifluoromethoxy)phenyl)-3-oxo-3,5,6,7,8,9-hexahydro-2H-6,9-epiminocyclohepta[c]pyridazine-10-carboxamide]	> 6.30	–
N#Cc1cc(NC(=O)N2[C@H]3CC[C@@H]2c2n[nH]c(=O)cc2C3)c(F)cc1Cl [Compound 112, (6S,9R)-N-(4-Chloro-5-cyano-2-fluorophenyl)-3-oxo-3,5,6,7,8,9-hexahydro-2H-6,9-epiminocyclohepta[c]pyridazine-10-carboxamide]	> 6.30	–
O=C(Nc1ccc(C2COC2)cc1)N1[C@H]2CC[C@@H]1c1ccnc(F)c1C2 [Compound 58, (5R,8S)-1-Fluoro-N-(4-(oxetan-3-yl)phenyl)-6,7,8,9-tetrahydro-5H-5,8-epiminocyclohepta[c]pyridine-10-carboxamide]	5.30 to 6.30	–
Cc1nn(C)c(C)c1-c1cc(F)c(NC(=O)N2[C@H]3CC[C@@H]2c2n[nH]c(=O)cc2C3)cc1Cl [Compound 150, (6S,9R)-N-(5-Chloro-2-fluoro-4-(1,3,5-trimethyl-1H-pyrazol-4-yl)phenyl)-3-oxo-3,5,6,7,8,9-hexahydro-2H-6,9-epiminocyclohepta[c]pyridazine-10-carboxamide]	5.30 to 6.30	–
